The results in this text go back to patent US9925189B2, “Heterocyclic receptor agonists for the treatment of diabetes and metabolic disorders” (CymaBay Therapeutics, Inc., priority 2006, dated 2018).

SMILES strings stand for the structures.

The target in the first test is T1, IC-GPCR2 (Homo sapiens, UniProt Q8TDV5, S309L).
T1 construct: expressed in transfected cells
T1 sequence (Q8TDV5 1-335 S309L): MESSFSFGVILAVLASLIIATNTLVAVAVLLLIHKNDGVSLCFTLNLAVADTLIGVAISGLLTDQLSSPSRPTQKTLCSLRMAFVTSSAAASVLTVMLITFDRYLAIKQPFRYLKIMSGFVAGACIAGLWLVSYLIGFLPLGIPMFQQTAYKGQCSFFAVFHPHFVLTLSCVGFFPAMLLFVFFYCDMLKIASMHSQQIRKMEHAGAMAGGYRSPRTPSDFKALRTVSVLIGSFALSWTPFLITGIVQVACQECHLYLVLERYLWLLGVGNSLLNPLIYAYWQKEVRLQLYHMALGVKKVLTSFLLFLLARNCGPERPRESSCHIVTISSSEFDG
The test is described as follows: Stimulation of cAMP in CHO cells stably expressing IC-GPCR2 (HTRF cAMP assay). Type of test: cell-based. The note with it: 0.5 h, 30 minutes, IC-GPCR2 stably expressing CHO cells, read-out: Activity at 10 uM (% change in FRET signal from DMSO control). Here is the method:
This assay was developed using a stable cell line expressing IC-GPCR-2, generated as follows. IC-GPCR2 (SEQ ID NO:1) was cloned into Gateway pDEST 40vector (Invitrogen), using the Gateway cloning system (invitrogen) according to the manufacturer's instructions. A stable cell line was generated by transfecting a 10 cm plate of CHO cells (source) with 8 ug of this construct using Transit-CHO transfection kit (Mirus). CHO cells were plated the day prior to transfection at a density of 3,000,000 cells/plate. Clones were selected using the antibiotic G418 at 500 ug/ml. 23 clones were picked and assayed for the expression of the receptor by measuring changes in intracellular cAMP levels in response to an IC-GPCR2 agonist.
To measure cAMP activity in response to IC-GPCR2 agonist, the clones were plated in 96 well plates at 17500 cells per well. On the day after plating, cells were incubated with the IC-CPCR2 agonist at […] for 30 minutes in Ham's F12 Media (Gibco) with 0.04% DMSO. cAMP was measured using the cAMP dynamic kit from Cis Bio (Bedford, Mass.) according to the manufacturer's instructions. Briefly, cells were lysed, and cAMP levels determined by competitive immunoassay using D2 labeled cAMP, and europium cryptate tagged anti cAMP antibody. When in close proximity, the D2 and europium cryptate undergo fluorescence resonance energy transfer (FRET), which is measured as a fluorescence ratio (665 nm/620 nm). Unlabelled cAMP in the cell lysate competed with the D2 labeled cAMP for the europium crypate labeled antibody. The resulting decrease in FRET signal corresponded to intracellular cAMP levels. Fluorescence was read on a BMG Labtech PHERAstar, software version 1.50.
Compounds were dissolved in 100% DMSO to a concentration of […] to provide stock solutions. To determine activity against IC-GPCR2, compounds were incubated with IC-GPCR2 stably expressing cells (described above), at 6-8 concentrations ranging from 0.00003 to 10 micromolar, in 96 well plates, in 50 ul of Hams F12 media for 30 minutes. Cells were plated at 17500 cells per well 1 day before running the assay. All compounds were also screened against the parental CHO cells. cAMP was measured using the cAMP dynamic kit from Cis Bio (Bedford, Mass.), according to the manufacturer's instructions. Briefly, cells were lysed and cAMP levels determined by competitive immunoassay using D2 labeled cAMP, and europium cryptate tagged anti cAMP antibody. When in close proximity, the D2 and europium cryptate undergo fluorescence resonance energy transfer (FRET), which is measured as a fluorescence ratio (665 nm/620 nm). Unlabelled cAMP in the cell lysate competed with the D2 labeled cAMP for the europium crypate labeled antibody. The resulting decrease in FRET signal corresponded to intracellular cAMP levels.
Activities of compounds disclosed in Table 1 and Table 2 below are expressed as the % change in FRET signal from DMSO control. “*” no activity observed when tested at 10 micromolar but no higher concentrations were tested. NT indicates the compound was not tested at the indicated concentration.
A general note: In TR-FRET formats the signal depends on donor and acceptor labels being close together.
Consider `CC(C)COC(=O)N1CCC(c2nc(COc3ccc(S(C)(=O)=O)cc3)cs2)CC1` [Example 24, 4-[4-(4-Methanesulfonyl-phenoxymethyl)-thiazol-2-yl]-piperidine-1-carboxylic acid isobutyl ester], for which the activation at 10 µM stood at 58%.

Regarding `CC(C)(C)CC(=O)N1CCC(c2nc(COc3ccc(-n4cnnn4)cc3)cs2)CC1` [Example 41, 3,3-Dimethyl-1-{4-[4-(4-tetrazol-1-yl-phenoxymethyl)-thiazol-2-yl]-piperidin-1-yl}-butan-1-one], the activation at 10 µM amounted to 75%.

Consider `CC(=O)c1ccc(OCc2csc(C3CCN(C(=O)OC(C)(C)C)CC3)n2)c(F)c1` [Example 125, 4-[4-(4-Acetyl-2-fluoro-phenoxymethyl)-thiazol-2-yl]-piperidine-1-carboxylic acid tert-butyl ester], for which the activation at 10 µM worked out at 78%.

For `CCc1cnc(N2CCC(c3nc(COCc4ccc(S(C)(=O)=O)cc4)cs3)CC2)nc1` [Example 203, 5-Ethyl-2-{4-[4-(4-methanesulfonyl-benzyloxymethyl)-thiazol-2-yl]-piperidin-1-yl}-pyrimidine], the activation at 10 µM is 76%.

Take `CCc1cnc(N2CCC(c3nc(CNc4ccc(F)nc4)cs3)CC2)nc1` [Example 188, {2-[1-(5-Ethyl-pyrimidin-2-yl)-piperidin-4-yl]-thiazol-4-ylmethyl}-(6-fluoro-pyridin-3-yl)-amine]: the activation at 10 µM came out at 69%.

Take `CCc1cnc(N2CCC(c3nc(COc4ccc(SC(F)(F)F)cc4)cs3)CC2)nc1` [Example 16, 5-Ethyl-2-{4-[4-(4-trifluoromethylsulfanyl-phenoxymethyl)-thiazol-2-yl]-piperidin-1-yl}-pyrimidine]: the activation at 10 µM was 56%.

With `CCC(=O)c1cc(F)c(OCc2csc(C3CCN(C(=O)OC(C)(C)C)CC3)n2)c(F)c1` [Example 124, 4-[4-(2,6-Difluoro-4-propionyl-phenoxymethyl)-thiazol-2-yl]-piperidine-1-carboxylic acid tert-butyl ester], the activation at 10 µM amounted to 80%.

Regarding `CCc1cnc(N2CCC(c3nc(COc4ccc(S(C)(=O)=O)c(C)c4)cs3)CC2)nc1` [Example 14, 5-Ethyl-2-{4-[4-(4-methanesulfonyl-3-methyl-phenoxymethyl)-thiazol-2-yl]-piperidin-1-yl}-pyrimidine], the activation at 10 µM is 84%.

For the compound `CC(C)(C)OC(=O)N1CCC(O)(c2nc(COc3ccc(S(C)(=O)=O)cc3)cs2)CC1` [Example 86, 4-Hydroxy-4-[4-(4-methanesulfonyl-phenoxymethyl)-thiazol-2-yl]-piperidine-1-carboxylic acid tert-butyl ester], the activation at 10 µM worked out at 49%.

Regarding `CC(C)(C)OC(=O)N1CCC(c2nc(COc3ccc(S(C)(=O)=O)cc3F)cs2)CC1` [Example 18, 4-[4-(2-Fluoro-4-methanesulfonyl-phenoxymethyl)-thiazol-2-yl]-piperidine-1-carboxylic acid tert-butyl ester], the activation at 10 µM amounted to 72%.

In the case of `CC(C)(C)OC(=O)N1CCC(c2nc(CNc3ccc(S(C)(=O)=O)cc3)cs2)CC1` [Example 138, 4-{4-[(4-Methanesulfonyl-phenylamino)-methyl]-thiazol-2-yl}-piperidine-1-carboxylic acid tert-butyl ester], the activation at 10 µM worked out at 64%.

Consider `FC(F)(F)c1noc(N2CCC(c3nc(COc4ccc(-n5cnnn5)cc4)cs3)CC2)n1` [Example 98, 4-[4-(4-Tetrazol-1-yl-phenoxymethyl)-thiazol-2-yl]-1-(3-trifluoromethyl-[1,2,4]oxadiazol-5-yl)-piperidine], for which the activation at 10 µM was determined as 78%.

Turning to `CC(C)(C)OC(=O)N1CCC(c2nc(COc3ccc(-n4cnnn4)cc3)co2)CC1` [Example 121, 4-[4-(4-Tetrazol-1-yl-phenoxymethyl)-oxazol-2-yl]-piperidine-1-carboxylic acid tert-butyl ester], the activation at 10 µM was determined as 75%.

Regarding `CC(C)(C)OC(=O)N1CCC(c2nc(C(=O)Nc3ccc(-n4cnnn4)cc3)cs2)CC1` [Example 109, 4-[4-(4-Tetrazol-1-yl-phenylcarbamoyl)-thiazol-2-yl]-piperidine-1-carboxylic acid tert-butyl ester], the activation at 10 µM came to 38%.

Consider `O=Cc1ccc(N2CCC(c3nc(COc4ccc(-n5cnnn5)cc4)cs3)CC2)nc1` [Example 72, 4-[4-(4-Tetrazol-1-yl-phenoxymethyl)-thiazol-2-yl]-3,4,5,6-tetrahydro-2H-[1,2′]bipyridinyl-5′-carbaldehyde], for which the activation at 10 µM stood at 78%.

Regarding `CC(C)(C)OC(=O)N1CCC(c2nc(COc3ccc(N4CCCC4=O)cc3)cs2)CC1` [Example 6, 4-{4-[4-(2-Oxo-pyrrolidin-1-yl)-phenoxymethyl]-thiazol-2-yl}-piperidine-1-carboxylic acid tert-butyl ester], the activation at 10 µM was found to be 68%.

Take `O=C(OCCF)N1CCC(c2nc(COc3ccc(-n4cnnn4)cc3)cs2)CC1` [Example 32, 4-[4-(4-Tetrazol-1-yl-phenoxymethyl)-thiazol-2-yl]-piperidine-1-carboxylic acid 2-fluoro-ethyl ester]: the activation at 10 µM was found to be 88%.

`CC(C)(C)OC(=O)N1CCC(c2nc(COc3ccc([S+]([O-])C(F)(F)F)cc3)cs2)CC1` (stereo not shown) [Example 111, 4-[4-(4-Trifluoromethanesulfinyl-phenoxymethyl)-thiazol-2-yl]-piperidine-1-carboxylic acid tert-butyl ester]: the activation at 10 µM was determined as 68%.

On to `CC(C)(C)OC(=O)N1CCC(c2nc(COc3ccc(-n4cccc4)cc3)cs2)CC1` [Example 113, 4-[4-(4-Pyrrol-1-yl-phenoxymethyl)-thiazol-2-yl]-piperidine-1-carboxylic acid tert-butyl ester], for which the activation at 10 µM turned out to be 60%.

As to `c1cc(-n2cnnn2)ccc1OCc1csc(C2CCN(c3nc(C4CC4)no3)CC2)n1` [Example 97, 1-(3-Cyclopropyl-[1,2,4]oxadiazol-5-yl)-4-[4-(4-tetrazol-1-yl-phenoxymethyl)-thiazol-2-yl]-piperidine], the activation at 10 µM amounted to 52%.

As to `CCc1cnc(N2CCC(c3nc(COc4c(F)cc(S(C)(=O)=O)cc4F)cs3)CC2)nc1` [Example 189, 2-{4-[4-(2,6-Difluoro-4-methanesulfonyl-phenoxymethyl)-thiazol-2-yl]-piperidin-1-yl}-5-ethyl-pyrimidine], the activation at 10 µM was 76%.

With `CCCCCOC(=O)N1CCC(c2nc(COc3ccc(-n4cnnn4)cc3)cs2)CC1` [Example 31, 4-[4-(4-Tetrazol-1-yl-phenoxymethyl)-thiazol-2-yl]-piperidine-1-carboxylic acid pentyl ester], the activation at 10 µM was 88%.

On to `CC(C)(C)OC(=O)N1CCN(c2nc(COc3ccc(S(C)(=O)=O)cc3)cs2)CC1` [Example 91, 4-[4-(4-Methanesulfonyl-phenoxymethyl)-thiazol-2-yl]-piperazine-1-carboxylic acid tert-butyl ester], for which the activation at 10 µM amounted to 28%.

On to `Clc1cnc(N2CCC(c3nc(COc4ccc(-n5cnnn5)cc4)cs3)CC2)c(Cl)c1` [Example 196, 3′,5′-Dichloro-4-[4-(4-tetrazol-1-yl-phenoxymethyl)-thiazol-2-yl]-3,4,5,6-tetrahydro-2H-[1,2′]bipyridinyl], for which the activation at 10 µM amounted to 19%.

The same test, now with this note: 30 minutes, IC-GPCR2 stably expressing CHO cells.
As for `CCc1cnc(N2CCC(c3nc(COc4ccc(-n5cnnn5)cc4)cs3)CC2)nc1` [Example 52, 5-Ethyl-2-{4-[4-(4-tetrazol-1-yl-phenoxymethyl)-thiazol-2-yl]-piperidin-1-yl}-pyrimidine], the “Activity at 10 uM (% change in FRET signal from DMSO control)” value was 67%.
